Read-outs that look alike come from different tables or passages of the source.
Legend:
[1] = test system: Staphylococcus epidermidis ATCC 12228; experiment: Carrier test: H2O2 solutions treated with 400 to 420 nm light for 1 minute, applied to bacterial carriers after a dwell time; format: cell-based
Procedure: The solutions were applied to the targets after the dwell times of 1 minute, 5 minutes, 10 minutes, 30 minutes, 1 hour, 12 hours, 24 hours, 2, days, 5 days, and 7 days. After 7 days of dwell time, all solutions were treated with light again for 1 minute, and a target was treated after 1 minute of dwell time.

[2] = test system: DvH
Procedure: In example 2, steel coupons were incubated in cultures of DvH for three days with and without exposure to an oxidizing agent compound, specifically hydrogen peroxide, combined with radiation of certain wavelengths 300-500 nm in a synergistic reaction and then the coupons were measured to determine the amount of metal loss due to corrosion.

[3] = test system: Desulfoviberio vulgaris Hildenborough (DvH); conditions: combined with radiation of 300 nm to 500 nm; in the presence of DvH, not replicated in sterile environment
Procedure: In Example 1, carbon steel coupons were incubated in the presence of oxygen and, as the oxidizing agent compound, hydrogen peroxide, combined with radiation of certain wavelengths of 300 nm to 500 nm in a synergistic reaction, with and without an inoculum of DvH. The metal loss of the carbon steel coupons was measured.

[4] = test system: microbes
[5] = 7 days*: reactivation with light of 400 to 420 nm for 1 minute, 1 minute dwell, control 9.80E+04
[6] = 7 days*: reactivation with light of 400 to 420 nm for 1 minute, applied after 1 minute dwell time
[7] = applied 1 min after solution exposed to light (400 to 420 nm, 1 minute)
[8] = applied 1 min after solution exposed to light, control 6.04E+05 CFU per carrier
[9] = applied 5 min after solution exposed to light
[10] = applied 5 min after solution exposed to light, control 6.04E+05
[11] = applied 10 min after solution exposed to light
[12] = applied 10 min after solution exposed to light, control 6.04E+05
[13] = applied 30 min after solution exposed to light
[14] = applied 30 min after solution exposed to light, control 6.04E+05
[15] = applied 1 hr after solution exposed to light
[16] = applied 1 hr after solution exposed to light, control 6.04E+05
[17] = applied 12 hr after solution exposed to light
[18] = applied 12 hr after solution exposed to light, control 9.20E+04
[19] = applied 24 hr after solution exposed to light
[20] = applied 24 hr after solution exposed to light, control 1.33E+05
[21] = applied 2 days after solution exposed to light
[22] = applied 2 days after solution exposed to light, control 3.00E+05
[23] = applied 5 days after solution exposed to light
[24] = applied 5 days after solution exposed to light, control 4.50E+04
[25] = applied 7 days after solution exposed to light
[26] = applied 7 days after solution exposed to light, control 9.80E+04

Q: Which results are given for OO [0.3% H2O2, hydrogen peroxide]?
A: % Reduction vs. Control [1, 5]: nr; CFU per carrier [1, 6]: 1.03E+05 CFU per carrier; CFU per carrier [1, 7]: 1.10E+04 CFU per carrier; % Reduction vs. Control [1, 8]: 98.18%; CFU per carrier [1, 9]: 3.00E+04 CFU per carrier; % Reduction vs. Control [1, 10]: 95.04%; CFU per carrier [1, 11]: 1.98E+05 CFU per carrier; % Reduction vs. Control [1, 12]: 67.24%; CFU per carrier [1, 13]: 7.00E+04 CFU per carrier; % Reduction vs. Control [1, 14]: 88.42%; CFU per carrier [1, 15]: 7.00E+04 CFU per carrier; % Reduction vs. Control [1, 16]: 88.42%; CFU per carrier [1, 17]: 1.27E+05 CFU per carrier; % Reduction vs. Control [1, 18]: nr; CFU per carrier [1, 19]: 1.40E+04 CFU per carrier; % Reduction vs. Control [1, 20]: 89.47%; CFU per carrier [1, 21]: 2.64E+05 CFU per carrier; % Reduction vs. Control [1, 22]: 12.00%; CFU per carrier [1, 23]: 4.40E+04 CFU per carrier; % Reduction vs. Control [1, 24]: 2.22%; CFU per carrier [1, 25]: 7.70E+04 CFU per carrier; % Reduction vs. Control [1, 26]: 21.43%

Q: How did the “metal loss of coupons without treatment relative to coupons with treatment” value ([2]; 100 ppm (0.01%) hydrogen peroxide combined with radiation 300-500 nm, three days in DvH cultures) turn out when OO [hydrogen peroxide] was run?
A: The value was about 2 fold.

Q: And the “corrosion of metal coupons” value ([2]; in the presence of hydrogen peroxide combined with radiation 300-500 nm, DvH cultures, three days)?
A: The value was “little to no corrosion”.

Q: What about the “effect on corrosion (weight loss) of carbon steel coupons” value [3] of the same compound?
A: Its value is “reduce and/or eliminate corrosion in the presence of DvH”.

Q: OO [3% H2O2, hydrogen peroxide] was tested. Which “% Reduction vs. Control” value [1, 5] did it give?
A: Its value is 89.80%.

Q: And the CFU per carrier [1, 6]?
A: Its CFU per carrier is 1.00E+04 CFU per carrier.

Q: And the CFU per carrier [1, 7]?
A: The CFU per carrier was 7.00E+04 CFU per carrier.

Q: And the “% Reduction vs. Control” value [1, 8]?
A: Its value is 88.42%.

Q: And the CFU per carrier [1, 9]?
A: Its CFU per carrier is 7.00E+04 CFU per carrier.

Q: And the “% Reduction vs. Control” value [1, 10]?
A: Its value is 88.42%.

Q: What about the CFU per carrier [1, 11] of the same compound?
A: The CFU per carrier was 3.10E+04 CFU per carrier.

Q: And the “% Reduction vs. Control” value [1, 12]?
A: The value was 94.87%.

Q: And the CFU per carrier [1, 13]?
A: The CFU per carrier was 2.80E+04 CFU per carrier.

Q: And the “% Reduction vs. Control” value [1, 14]?
A: Its value is 95.37%.

Q: And the CFU per carrier [1, 15]?
A: The CFU per carrier was 7.10E+04 CFU per carrier.

Q: And the “% Reduction vs. Control” value [1, 16]?
A: The value was 88.25%.

Q: What about the CFU per carrier [1, 17] of the same compound?
A: Its CFU per carrier is 1.80E+04 CFU per carrier.

Q: And the “% Reduction vs. Control” value [1, 18]?
A: The value was 80.43%.

Q: And the CFU per carrier [1, 19]?
A: The CFU per carrier was 2.10E+04 CFU per carrier.

Q: And the “% Reduction vs. Control” value [1, 20]?
A: Its value is 84.21%.

Q: And the CFU per carrier [1, 21]?
A: Its CFU per carrier is 9.00E+04 CFU per carrier.

Q: And the “% Reduction vs. Control” value [1, 22]?
A: Its value is 70.00%.

Q: What about the CFU per carrier [1, 23] of the same compound?
A: Its CFU per carrier is 3.29E+03 CFU per carrier.

Q: What about the “% Reduction vs. Control” value [1, 24] of the same compound?
A: The value was 92.69%.

Q: And the CFU per carrier [1, 25]?
A: The CFU per carrier was 1.50E+04 CFU per carrier.

Q: What about the “% Reduction vs. Control” value [1, 26] of the same compound?
A: The value was 84.69%.

Q: And the microbes eliminated ([4]; 3% hydrogen peroxide together with radiation of 300 to 600 nanometers)?
A: The microbes eliminated was 99.9999%.

Q: And the microbes eliminated ([4]; 3% solution alone, no radiation)?
A: The microbes eliminated was “approximately 30%”.

From patent US11033648B2, “Method, system and device for reducing microbial concentration and/or biofilm formation and/or reducing mineral and chemical concentrations to purify contaminated surfaces and substances” (EMODs Technology, L.L.C., priority 2019, dated 2021)
